From patent US20080161422A1, “Methods and Compositions for the Treatment of Lipid-Associated Disorders” (priority 2005, published 2008)
“Also recorded” adds a separate entry of the source.

Assays:
[1] = tested on: women suffering from painful menstrual cramps; settings: 80 women; 100 mg niacin twice daily, then every 2 to 3 hours during heavy cramps; cited from earlier work
niacin receptor [2] = molecular target: T1, niacin receptor (Homo sapiens, UniProt Q8TDS4); assay: Binding to the niacin receptor
niacin receptor [3] = molecular target: T1, niacin receptor; assay: MAP kinase ELISA (phosphoERK1/2) in CHO cells expressing the human niacin receptor; settings: compared to niacin
mouse niacin receptor = molecular target: T2, mouse niacin receptor (Mus musculus, UniProt Q9EP66); assay: MAP kinase ELISA (phosphoERK1/2) in CHO cells expressing the mouse niacin receptor; assay type: cell-based; settings: compared to niacin
T2 construct: expressed in transfected cells; host or cells: CHO cells
Protocol: A kit from Biosource (phosphoERK1/2 pT185pY187 ELISA, Catalog #KHO-0091) was used according to the following protocol.
The cells were serum-starved overnight prior to stimulating the cells with compound.
A. Compounds were dissolved in DMSO. […] PMA (100 ng/ml) was used as a positive control. B. Cell dishes were taken out of the incubator and placed on a rocker set to gentle rocking (set speed at 4). Compound was carefully added and cells were returned to the incubator to incubate for 5 min. At 4.5 min, the medium was aspirated from dishes in the order that the compound was added. Then 2 ml cold PBS was added and excess medium was removed by gentle swirling. The PBS was aspirated and 1 ml of PBS was added (1 ml for confluent 6 cm dish).
A. Cells were scraped from dish with a rubber policeman and transferred to a microfuge tube, then centrifuged at 3000 rpm at 4° C. for 5 minutes. B. The PBS was aspirated and cell pellet lysed in Cell Extraction Buffer (0.1% SDS) (250-300 μl for confluent 6 cm dish) for 30 min. on ice with vortexing at 10 min intervals. C. The mixture was then centrifuged at max speed (16,000×G) for 15 min. at 4° C. D. Clarified lysates were transferred to new microfuge tubes and protein concentration measure. […]
A. All reagents were at room temperature and mixed before use. […] The number of 8 well strips needed for assay was determined and bag was sealed and returned to 4° C. […]

T1 sequence (Q8TDS4 whole entry): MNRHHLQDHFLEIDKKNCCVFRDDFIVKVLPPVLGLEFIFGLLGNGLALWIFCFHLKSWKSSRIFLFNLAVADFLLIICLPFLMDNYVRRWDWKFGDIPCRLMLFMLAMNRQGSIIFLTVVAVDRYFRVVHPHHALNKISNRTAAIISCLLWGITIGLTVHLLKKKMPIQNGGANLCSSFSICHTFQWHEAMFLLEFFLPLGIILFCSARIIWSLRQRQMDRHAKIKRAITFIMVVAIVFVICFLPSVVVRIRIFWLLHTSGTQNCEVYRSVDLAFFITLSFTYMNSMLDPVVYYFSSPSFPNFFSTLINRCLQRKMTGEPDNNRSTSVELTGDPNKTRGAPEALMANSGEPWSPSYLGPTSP
T2 sequence (Q9EP66 whole entry): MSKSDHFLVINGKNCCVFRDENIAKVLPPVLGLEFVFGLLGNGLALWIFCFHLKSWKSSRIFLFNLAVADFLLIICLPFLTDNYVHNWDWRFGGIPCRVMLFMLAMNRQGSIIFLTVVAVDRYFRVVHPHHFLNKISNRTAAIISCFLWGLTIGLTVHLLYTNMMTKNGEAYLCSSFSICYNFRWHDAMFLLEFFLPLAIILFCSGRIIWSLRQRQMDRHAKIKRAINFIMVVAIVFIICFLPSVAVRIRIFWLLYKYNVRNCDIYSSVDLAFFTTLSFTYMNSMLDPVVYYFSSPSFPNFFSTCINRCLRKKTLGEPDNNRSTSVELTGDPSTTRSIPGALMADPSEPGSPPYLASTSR

| Structure (SMILES) | subjects experiencing significant relief [1] | binding to the niacin receptor (niacin receptor [2]) | MAP kinase activation (niacin receptor [3]) | MAP kinase activation (mouse niacin receptor) |
| --- | --- | --- | --- | --- |
| O=C(O)c1cccnc1 [niacin, nicotinic acid] | About 90% | – | – | – |
| c1cncc(-c2nn[nH]n2)c1 [Compound 12] | – | binds to the niacin receptor | closely matches the profile of niacin; also recorded: behaves like niacin in a MAP kinase assay | closely matches the profile of niacin; also recorded: behaves like niacin in a MAP kinase assay |
